The record followed here is US20230330089A1, “COVID PREVENTION AND TREATMENT USING AN INTEGRIN INHIBITOR” (priority 2022, published 2023).

For the experiment, the system named is SARS-CoV-2 pseudovirus variants. Format: cell-based.

Molecules are shown by their SMILES.

Take `COc1ccc(S(=O)(=O)N[C@@H](CNc2nc(C)nc(N3CCC(c4ccc5c(n4)NCCC5)CC3)c2C)C(=O)O)cc1` [GLPG-0187]: the “inhibition of Beta and Delta variant pseudovirus infection” value is recorded as “most significant decrease in pseudovirus infection by the Delta variant”; the “inhibition of D614G pseudovirus infection” value is recorded as “inhibited pseudovirus infection in a dose-dependent manner”; the “inhibition of D614G pseudovirus infection, single agent vs positive control” value is on record as “inhibited pseudovirus infection”; the “inhibition of D614G, Delta and Omicron pseudovirus infection” value is “effectively blocked”. Besides, the “inhibition of Omicron and Delta pseudovirus infection compared with other variants” value is “more significantly than other variants”; the “inhibition of infection by D614, D614G, N501Y, E484K, N+E, NEK, R685A pseudovirus variants” value was “inhibition of viral infection of each variant”.
On to `CNS(=O)(=O)Nc1nccc(Cc2c(C)c3ccc(Oc4ncccn4)cc3oc2=O)c1F` [VS-6766], for which the “inhibition of D614G pseudovirus infection, single agent vs positive control” value was “inhibited pseudovirus infection”.
